Source: patent US20210330756A1, “Acetylation of Miro1” (University of South Carolina, priority 2020, published 2021)

What was measured:
[1] = system: axonal mitochondrial membrane potential (ΨM); test: Mitochondrial membrane potential (JC-1 red/green ratio) in axon shafts of DRG neurons; type: cell-based, rat
From the text: Considering the above changes in mitochondrial transport, we asked if MAG and CSPG might affect mitochondrial function in axons. Functional mitochondria are needed to generate ATP, and the mitochondrion's membrane potential (ΨM) is thought to reflect its capacity for generating ATP. Increased anterograde transport of mitochondria in axons correlated with higher ΨM, as measured by the ratiometric 5,5′,6,6′-tetrachloro-1,1′,3,3′-tetraethylbenzimidazolcarbocyanine iodide (JC-1) dye (Miller and Sheetz, 2004), and reduced axonal ΨM in Drosophila melanogaster larvae was recently correlated with overall decrease in mitochondrial transport (Liao et al., 2017).
JC-1 (Life Technologies) was used for wm measurements. For this, DRG cultures were equilibrated in culture medium with […] JC-1 for 20 min at 37° C. Medium was replaced, and the cells were maintained at 37° C. in the high-content imaging system on which JC-1 fluorescent signals in green and red wavelengths were acquired. […]
Vesicle trafficking was quantified using differential ImageJ Difference Tracker Plug-in (Andrews et al., 2010). 50-80-μm long unbranched axon segments at approximately the mid-region between growth cone and cell body were analyzed. […] The distance between the growth tip at end of the post-CALI sequence and the pre-CALI baseline was measured using LAS-X software. Movement of ≥0.5 μm toward the axon shaft was counted as retracted. Fluorescence emission of the Mito-KR post-CALI was analyzed using ImageJ. For normalizing intensities across FRAP image sets, fluorescence intensity at each time point was scaled using the LAS-X FRAP module so that the residual fluorescence signal at t=0 min (post-bleach) was set at 0 and the prebleach intensity was set at 100% for each bleached ROI. For axon shaft FRAP analyses, each 50-μm bleached ROI was divided into […], and the fluorescence intensity recovery was measured as described above. […] A minimum of 75 unmyelinated axons was analyzed for each nerve. All unmyelinated axons from each analyzed image were included for quantitative studies. […]

Miro1-AcK105 = Miro1-AcK105 levels in DRG cultures by immunoblotting and immunofluorescence; type: cell-based, rat
From the text: The three reported acetylation sites for Miro1 in human cell lines K92, K512, and K618 (Choudhary et al., 2009; Lundby et al., 2012) correspond to K105, K525, and K629 in rat Miro1 (FIG. 6 at D). We generated Lys-to-Ala mutants for K105, K525, and K629 to determine if these Miro1 residues are acetylated in neurons (Myc-Miro1K105A , Myc-Miro1K525A , and […]; FIG. 6 at D). […] To more definitively assess acetylation of K105, we used acetylated Miro1 peptides to generate an anti-Miro1-AcK105 antibody.
For immunoblotting, protein lysates or immunoprecipitates were denatured by boiling in Laemmli sample buffer, fractionated by SDS-PAGE, and transferred to nitrocellulose membranes. Blots were blocked for 1 h at room temperature with 5% nonfat dry milk in TBS with 0.1% Tween 20 (TBST). Primary antibodies diluted in 5% BSA in TBST were added to the membranes and incubated overnight at 4° C. with rocking. Primary antibodies consisted of rabbit anti-Myc (1:2,000; Cell Signaling; 71D10), rabbit anti-RHOT1 antibody (1:1,000; Aviva Systems Biology; ARP44817 P050), rabbit anti-HDAC6 antibody (1:2,000; Cell Signaling; 7558), rabbit anti-ERK1 (1:5,000; Abcam; ab32537), and affinity-purified custom rabbit anti-Miro1-AcK105 (1:2,500; Twiss laboratory, see above) antibodies. For the anti-Miro1-AcK105 antibody, preimmune and test-bleed sera were used at 1:1,000 dilutions to initially evaluate for specificity. After washing in TBST, blots were incubated with HRP-conjugated anti-rabbit IgG antibodies (1:5,000; Jackson Immunoresearch) diluted in blocking buffer for 1 h at room temperature. Signals were detected using ECL Prime (GE Healthcare) after extensive washing.
Standard immunofluorescence methods were used as previously described (Merianda et al., 2009) at room temperature unless specified otherwise. Briefly, coverslips were rinsed in PBS, fixed in buffered 3.7% PFA for 15-20 min, and washed twice in PBS. Cultures were permeabilized with PBS plus 0.3% Triton X-100 (PBST; Sigma-Aldrich) for 5 min. Coverslips were blocked in 2% BSA and 2% FBS (Gemini) for 1 h. […]

| Compound | effect on MAG-Fc- or CSPG-dependent declines in ΨM ([1]; 10 μM TubA) | effect on Rho activator- and thapsigargin-dependent decrease in ΨM ([1]; +10 μM TubA) | anti-Miro1-AcK105 immunoblot signal (Miro1-AcK105; DRG lysates ± 10 μM TubA) | ΨM in the axons ([1]; 1 μg/ml Rho activator or 1 μM thapsigargin) | Miro1-AcK105 overall by immunoblotting (Miro1-AcK105; 10 μg/ml aggrecan or 1 μM thapsigargin, 4 h) | Miro1-AcK105 in axons by immunofluorescence (Miro1-AcK105; aggrecan- or thapsigargin-treated cultures) |
| --- | --- | --- | --- | --- | --- | --- |
| CN1CCc2c(c3ccccc3n2Cc2ccc(C(=O)NO)cc2)C1 [TubA, tubastatin] | prevented by inhibition of HDAC6 with TubA | also prevented by HDAC6 inhibition | clear increase in signal |  |  |  |
| C/C=C(/C)C(=O)O[C@H]1C(C)=C2[C@H]([C@@H]1OC(=O)CCCCCCC)[C@@](C)(OC(C)=O)C[C@H](OC(=O)CCC)[C@@]1(O)[C@H]2OC(=O)[C@@]1(C)O [thapsigargin] |  |  |  | decreased ΨM | decreased Miro1-AcK105 | decreased Miro1-AcK105 |
